According to patent US4880835A, “Oral liquid pharmaceutical compositions of sulindac” (Formulations Development Labs, Inc., priority 1988, dated 1989):

Key:
[1] = background statement; cited from earlier work
[2] = pH measurement of oral solutions diluted with water 1:10 and of sodium sulindac solution; assay type: physicochemical
Excerpt: The results are shown below.

[3] = Stability, hygroscopicity and crystallization of salts and compositions; assay type: physicochemical

## CC1=C(CC(=O)O)c2cc(F)ccc2/C1=C\c1ccc([S+](C)[O-])cc1 (stereo not drawn) [Sulindac]
[1]
  absorption from the gastrointestinal tract: erratically absorbed

## CC1=C(CC(=O)O)c2cc(F)ccc2/C1=C\c1ccc([S+](C)[O-])cc1 (stereo not drawn) [calcium sulindac]
[2]; compared with sodium sulindac solutions
  pH of solutions, in words: acceptable for formulation
[3]
  stability: good stability

## CC1=C(CC(=O)O)c2cc(F)ccc2/C1=C\c1ccc([S+](C)[O-])cc1 (stereo not drawn) [sodium sulindac]
[2]; aqueous solution, 4%
  pH of aqueous solution: 10.99
[3]
  hygroscopicity: strongly hygroscopic
[3]; in our hands
  crystallization: difficult to crystallize
